Series [1] concerns glyphosate resistant strain of Italian ryegrass. The experiment in a line: Control of glyphosate resistant Italian ryegrass, piperonyl butoxide pre-treatment then glyphosate (Western Australia). It is filed as in vivo. The conditions noted are these: glyphosate without piperonyl butoxide; 8 replicated trials; FIG. 1.
For the next series, the system named is pollen beetle. The conditions noted are these: with insecticides.
For another series, the system named is plant crop. To be noted: optimised dose rate. The protocol:
Preferably, the time delay is from 1 to 24 hours, preferably from 2 to 8 hours. However, the time delay required varies with temperature and dose rate. […] (these time delays assume an optimised dose rate).

The test system of another series is plants. To be noted: applied alone, in the absence of any active ingredients; cited from earlier work.
The next series relates to white fly. To be noted: with insecticides.
Series [2] deals with clodinafop resistant strains of blackgrass. The protocol: Further experiments were carried out using clodinafop resistant strains of blackgrass.
Daytime temperature of 11° C. Night time temperature of 8° C.

Where [3] appears, read: piperonyl butoxide 320 grams per ha then clodinafop 250 g ai/ha, daytime 11° C., night 8° C., FIG. 9.

Like-named read-outs stand apart in the source and are kept apart here.

As for `O=C(O)CNCP(=O)(O)O` [glyphosate], the level of control entry in series [1] is recorded as “minimal”.
In the case of `CCCCOCCOCCOCc1cc2c(cc1CCC)OCO2` [piperonyl butoxide], the “optimum delay for application” value is “approximately 1 hour” with pollen beetle and approximately 8 h with white fly. Further, the optimum time delay in the series on plant crop (11° C.) is 8 h; in the series with plant crop (15° C.) it was 4 h; in the series on plant crop (25° C.), 2.5 h. In addition, the toxicity to plants result with plants is on record as “not detectable”. In series [2] (early autumn trials, ambient temperature of the order of 18° C.), the optimum delay was 2 to 8 h. Moreover, the “delays showing high levels of control” value in series [2] (setting [3]) fell in the range of 8 to 16 h. For the same molecule, the “optimum delay for efficacy” value in series [2] (setting [3]) was “approximately 8 hours”.

Values taken from patent publication US20180153168A1, “A PRIMER FOR PESTICIDES” (PANGAEA AGROCHEMICALS LIMITED, priority 2015, published 2018).
